Laboratory results: paper PMC13538172, “Zonisamide nanodiamonds for brain targeting: A comprehensive study utilising in silico, in vitro, in vivo, and molecular investigation for successful nose-to-brain delivery for epilepsy management” (Drug Delivery and Translational Research, 2025)

Columns and labels:
[1] = design: method as in PMID 10837713; settings: following systemic absorption; cited from earlier work
[2] = tested on: matrix metallopeptidase-9 (MMP-9); assay: Serum MMP-9 by ELISA in TLE rats; assay type: in vivo; settings: compared to the TLE control rats; intranasal, 7 days
Experimental: Temporal lobe epilepsy (TLE) was induced in rats using the pilocarpine model according to the method of Arshad et al.. Prior to the experiment, rats were housed in plastic cages at October University for Modern Science and Arts under controlled environmental conditions (temperatures of 25°±3°C and 50% humidity) with free access to water and softened standard pellet chow. The rats were injected with pilocarpine (300 mg/kg; i.p.) to induce status epilepticus (SE). Atropine (1 mg/kg; i.p.) was injected 30 minutes before pilocarpine injection to antagonize the peripheral muscarinic activity. SE was defined using the modified Racine scale by observing seizure severity categorized as stages 4 and 5. […] The SE seizures were left to last for 3 hours to induce hippocampus damage, after which diazepam (10 mg/kg; i.p.) was injected to attenuate the seizures. Lubricant ophthalmic gel was applied with a cotton swab to each eye to prevent the corneas from drying out during the seizures. The rats were hydrated with sterile Ringer's lactate injections (1 mL, i.p.) for 3 days post-SE induction. […]
The serum levels of neuron-specific enolase (NSE), matrix metallopeptidase-9 (MMP-9), neurofilament light polypeptide (NEFL), and brain-derived neurotrophic factor (BDNF) were measured by ELISA technique using the following standard kits CAT no. […]

[3] = tested on: Sirtuin 1 (Sirt-1); assay: Hippocampal SIRT-1 expression by quantitative RT-PCR in TLE rats; assay type: in vivo; settings: relative quantitation 2-∆∆Ct; TLE control 0.16 fold of normal
Experimental: Temporal lobe epilepsy (TLE) was induced in rats using the pilocarpine model according to the method of […] et al.. Prior to the experiment, rats were housed in plastic cages at October University for Modern Science and Arts under controlled environmental conditions (temperatures of 25°±3°C and 50% humidity) with free access to water and softened standard pellet chow. The rats were injected with pilocarpine (300 mg/kg; i.p.) to induce status epilepticus (SE). Atropine (1 mg/kg; i.p.) was injected 30 minutes before pilocarpine injection to antagonize the peripheral muscarinic activity. SE was defined using the modified Racine scale by observing seizure severity categorized as stages 4 and 5. […] For quantitative RT-PCR analysis of miR-199, Sirtuin 1 (Sirt-1) and long non-coding RNA of plasmacytoma variant translocation1 (LncRNA PVT-1), RNA was isolated from the brain hippocampus tissue with direct-zol RNA Miniprep Plus (CAT no. R2072) and reverse-transcribed into cDNA with the reverse transcriptase (CAT no. 12594100) according to the manufacturer instructions. […] Quantitative reverse transcriptase PCR was performed using a Power SYBR Green PCR Master Mix (CFX96 Instrument; Bio-Rad, USA). The relative quantitation (RQ) of each target gene is quantified according to the 2-ΔΔCt method calculation.

Structure (SMILES): NS(=O)(=O)Cc1noc2ccccc12 [ZNS, Zonisamide]
- Oldendorf Brain Uptake Index [1]: 28%
- decrease in serum level of MMP-9 [2]: 40.1%
- hippocampal SIRT-1 level [3]: 0.47 folds
